Entries after “also recorded” stand apart in the source; their conditions may differ. Read-outs that look alike come from different tables or passages of the source. Positions of bridges follow the written chain, without caps; N, C: chain ends. Residues, ends and D or L forms follow the SMILES beside them. No end group written: not given here.
Experiments:
[1] = biological target: T1, αvβ3 integrin (Homo sapiens, UniProt P05106+P06756); assay: Yeast-displayed peptide binding to soluble αvβ3 integrin, flow cytometry; conditions: yeast-displayed peptides
Experimental: The yeast display construct shown in FIG. 1A has the general orientation: Aga2-HA-engineered knottin—c-myc epitope, with the c-myc epitope at the carboxy terminus of the peptide. […] Bound integrin is detected with an anti-integrin antibody, labeled with FITC.
Below is a typical protocol to label a yeast library samples for sorting by flow cytometry (FACS): • 1. Want 2×10^6 cells, OD600 of […] • 2. Add 1 mL PBS/BSA (phosphate buffered saline containing 1 mg/mL bovine serum albumin) to wash cells • 3. Spin down cells 3 min at 8000 RPM • 4. Remove supernatant using vacuum • 5. Re-suspend in 40 μL PBS/BSA containing proper amount of integrin (100 nM [2.5 μL of stock αvβ3]; no anti-cmyc at this point) • 6. Incubate for 1.5 h at r.t (w/tumbling) • 7. Add 1:250 dilution of (chick anti-cmyc) to labeling solution • 8. […] Incubate 1 h at 4° C. (w/tumbling) • 10. Keep on ice after this step. • 11. Spin down cells 3 min at 8000 RPM, 4° C. and vacuum supernatant • 12. Repeat wash steps 2-4 • 13. Re-suspend in 40 μL PBS/BSA containing proper amount of secondary labels (secondary labeling is simultaneous) • i. Anti-integrin Ab (FITC conj): 1:25 dilution+Anti-chick (Alexa 555): 1:100 dilution • ii. Positive control: Anti-chick (Alexa 555): 1:100 dilution (for FACS compensation) • iii. Positive control: Anti-chick (Alexa 488): 1:100 dilution (for FACS compensation) • 14. Incubate on ice 30 min and keep in dark (lid on ice bucket) • 15. Spin down cells at 3 min at 8000 RPM, 4° C. and vacuum supernatant • 16. Repeat steps 2-4: Add 1 mL PBS/BSA, pellet cells, vacuum supernatant • 17. Leave pelleted cells on ice until use. Fluorescent Cell Sorting
Commercially available flow cytometers can measure fluorescence emissions at the single-cell level at four or more wavelengths, at a rate of approximately 50,000 cells per second (Ashcroft and Lopez, 2000). Typical flow cytometry data are shown in FIG. 4-7, in which yeast have been labeled with two different color fluorescent probes to measure protein expression levels and bound soluble ligand (in this case integrin receptor). A ‘diagonal’ population of cells results due to variation in protein expression levels on a per cell basis: cells that express more protein will bind more ligand. The equilibrium binding constant (Kd) can be determined by titration of soluble ligand, and the dissociation rate constant (koff) can be measured through competition binding of unlabeled ligand. With yeast, a monodispersity of tethered proteins exists over the cell surface, and soluble ligand are used for binding and testing, such that avidity effects are not observed, unlike other display methods using immobilized ligands. To date, the properties of most proteins expressed on the yeast cell surface mimic what is seen in solution in terms of stability and binding affinity (Bader et al., 2000; Feldhaus et al., 2003; Holler et al., 2000; VanAntwerp and Wittrup, 2000). See, also, Weaver-Feldhaus et al., “Directed evolution for the development of conformation-specific affinity reagents using yeast display,” Protein Engineering Design and Selection Sep. 26, 2005 18(11):527-536.
Cell sorting was carried out on a FACSVantage (BD Biosciences) multiparameter laser flow cytometer and cell sorter. Before sorting, fluorescent staining was carried out as described above, so that analysis of integrin binding and c-myc expression levels were detected, as described above. […]

[2] = test system: subcutaneous U87MG glioblastoma tumors; assay: In vivo optical imaging of Cy5.5-labeled peptides in U87MG xenograft mice; design: species or system mouse
Experimental: FIG. 8A is a series of 4 pictures showing in vivo imaging of Cy5.5-labeled polypeptides in mice. 1.5 nmol of Cy5.5-labeled EETI-RGD peptide 2.5D or other indicated peptide was injected by tail vein into U87MG glioblastoma xenograft mouse models and imaged at various time points post injection. Arrows indicate the position of tumors. […] Cy5.5-labeled FN-RDG negative control (bottom line, open squares) indicates background levels.
Whole-body imaging of subcutaneous mouse xenografts were imaged with the IVIS 200 system (Xenogen) and quantified with Living Image 2.50.1 software.

[3] = test system: U87MG tumor; assay: MicroPET imaging and biodistribution of radiolabeled peptides in U87MG tumor-bearing mice; assay type: in vivo, mouse; conditions: radiolabeled peptides, U87MG tumor-bearing mice
Outline: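 Female athymic nude mice carrying subcutaneous U87MG xenografts (8–10 mm) received ~100 μCi 64Cu-DOTA peptides i.v. (tail vein); static microPET scans under 2% isoflurane. %ID/g obtained from ROIs on decay-corrected images assuming 1 g/mL density, without attenuation correction. Biodistribution measured by γ-counting of excised tissues, reported as %ID/g mean±SD.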

[4] = biological target: T2, αvβ3 integrin on U87MG glioblastoma cells (Homo sapiens, UniProt P05106+P06756); assay: 125I-echistatin competition binding to U87MG glioblastoma cells; conditions: read-out: IC50, competition with 125I-echistatin, U87MG tumor cells
T2 construct: host or cells: U87MG glioblastoma cells
Experimental: FIG. 9 is a graph showing normalized competition plotted against peptide concentration in an integrin-binding assay on U87MG glioblastoma cells.
U87MG glioblastoma cells, which express ˜10^5 αvβ3 integrin receptors per cell, were used for these studies. […] An EETI-based polypeptide with a scrambled RDG amino acid sequence, designated FN-RDG, served as a negative control.
Half-maximal inhibitory concentrations (IC50) […] of data measured on at least three separate days. Data for unlabeled and Cy5.5-labeled peptides are shown. Site-specific labeling of RGD miniproteins with a near-infrared optical imaging probe: The free N-terminal amine of our polypeptides was used for site-specific attachment of Cy5.5, a near infrared imaging probe.
An αvβ3 integrin receptor binding assay is performed to determine the relative affinities of the mock-PET tracers compared to their unlabeled polypeptides. Briefly, 2×10^5 U87MG glioblastoma cells are incubated with 0.06 nM ^125I-echistatin in integrin binding buffer (25 mM Tris-HCl, pH 7.4, 150 mM NaCl2 1 mM CaCl2 1 mM MgCl2, 1 mM MnCl2, 0.1% BSA), in the presence of increasing concentrations of mock-PET tracers at room temperature. After incubation for 3 h, cells are pelleted by centrifugation at 1500 RPM and washed three times in binding buffer to remove unbound ligands. The radioactivity remaining in the cell pellet is measured by γ counting. IC50 values are determined by plotting the % competition and using a four-point binding equation (Kaleidagraph) to fit the data.

[5] = biological target: α5β1 integrin (Homo sapiens, UniProt P05556+P08648); assay: Competition of 125I-echistatin to detergent-solubilized plate-coated integrin; assay type: binding; conditions: 0.06 nM 125I echistatin, 5 nM and 50 nM peptide
Outline: (§1)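 Detergent-solubilized integrins were coated on plates. Displacement of 0.06 nM 125I-echistatin by unlabeled peptide was measured at 5 nM and 50 nM. Experiments were run in triplicate.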

[6] = biological target: αiibβ3 integrin (Homo sapiens, UniProt P05106+P08514); assay: as above; assay type: binding; conditions: 0.06 nM 125I echistatin, 5 nM and 50 nM peptide
Outline: as §1

[7] = biological target: T1, αvβ3 integrin; assay: as above; assay type: binding; conditions: 0.06 nM 125I echistatin, 5 nM and 50 nM peptide
Outline: as §1

[8] = biological target: αvβ5 integrin (Homo sapiens, UniProt P06756+P18084); assay: as above; assay type: binding; conditions: 0.06 nM 125I echistatin, 5 nM and 50 nM peptide
Outline: as §1

[9] = test system: U87MG glioblastoma cells; assay: Blocking of U87MG cell adhesion to vitronectin-coated plates; assay type: cell-based; conditions: vitronectin-coated wells
Text: (§2) The present engineered peptides may be used in a variety of ways. If the peptides are attached to a surface, they may be used to attract/recruit cells to grow on the surface. For example, the present peptides may be applied to prosthetic devices, implants, bone grafts, and the like to promote tissue growth and healing at the site. They may be attached to culture dishes and promote attachment and differentiation of cells in culture. In addition, the present engineered peptides may be used to modulate cell binding to selected integrins such as α5β1, αvβ3 and αvβ5, particularly αvβ3, by adding the peptides to a cell culture to prevent cells expressing these integrins from adhering to a substrate. […] Also, the present 2.5F, 2.5D and 1.5B peptides were tested for blocking adhesion of U87MG glioblastoma cells to fibronectin-coated plates.
(§3) In another experiment, the ability of engineered knottin peptides to block U87MG cell adhesion to vitronectin- and fibronectin-coated microtiter plates. Vitronectin is a natural ligand for several integrins, including αvβ3 and αvβ5. The RGD-containing peptides were all able to inhibit U87MG cell adhesion to vitronectin-coated plates in a dose-responsive manner. […] Fibronectin also binds to several integrins, (including αvβ3 and α5β1), but the α5β1 integrin receptor is generally selective for fibronectin.
Whether the engineered AgRP peptides could block vitronectin-mediated adhesion to the U87MG cells was tested using an analogous assay. […] The AgRP peptides may not effectively block U87MG adhesion compared to the K562-αvβ3 cells because the αvβ5 integrins co-expressed on the surface of the U87MG cells could also contribute to vitronectin-mediated adhesion and compensate for the loss of αvβ3 integrin function.

[10] = test system: U87MG glioblastoma cells; assay: Blocking of U87MG cell adhesion to fibronectin-coated plates; assay type: cell-based
Text: as §2, §3

[11] = test system: K562-αvβ3 cells; assay: Inhibition of vitronectin-mediated adhesion of K562-αvβ3 cells; assay type: cell-based; conditions: vitronectin-coated microtiter wells
Experimental: To determine whether the engineered AgRP peptides could inhibit cell adhesion mediated by vitronectin, the primary ligand for αvβ3 integrin, K562-αvβ3 cells were incubated with varying concentrations of peptides in microtiter wells coated with vitronectin to determine the ability of the peptides to inhibit cell adhesion. […] This difference may be a result of multivalent interactions between the cell surface αvβ3 integrins and the immobilized vitronectin, thereby making it more difficult for the peptides to compete.

[12] = biological target: T1, αvβ3 integrin; conditions: cited from earlier work

| Molecule | integrin binding compared in words [1] | tumor uptake / imaging signal of Cy5.5-labeled peptide, in words [2] | PET tumor targeting / imaging signal, in words [3] | IC50 ([4]; Cy5.5-labeled peptides (Cy5.5: Yes)) [nM] | IC50 ([4]; unlabeled peptides (Cy5.5: No)) [nM] | binding to α5β1 integrin, in words [5] | binding to αiibβ3 integrin, in words [6] | binding to αvβ3 integrin, in words [7] | binding to αvβ5 integrin, in words [8] | IC50 [9] [nM] | blocking of U87MG cell adhesion to fibronectin, in words [10] | IC50 [11] [nM] | Kd [12] [nM] |
| --- | --- | --- | --- | --- | --- | --- | --- | --- | --- | --- | --- | --- | --- |
| CC(C)C[C@@H]1NC(=O)[C@@H]2CSSC[C@@H](C(=O)NCC(=O)O)NC(=O)[C@H](Cc3ccccc3)NC(=O)CNC(=O)[C@H](CC(N)=O)NC(=O)[C@@H]3CCCN3C(=O)CNC(=O)[C@@H]3CSSC[C@H](NC(=O)[C@H](CO)NC(=O)[C@H](CO)NC(=O)[C@H](C)NC(=O)[C@@H]4CCCN4C(=O)[C@H](CO)NC(=O)[C@H](CC(=O)O)NC(=O)CNC(=O)[C@H](CCCNC(=N)N)NC(=O)CNC(=O)[C@H]([C@@H](C)O)NC(=O)[C@H](C(C)C)NC(=O)[C@@H](NC(=O)CN)CSSC[C@H](NC(=O)CNC(=O)[C@H](C)NC1=O)C(=O)N[C@@H](C(C)C)C(=O)N3)C(=O)N[C@@H](CCCCN)C(=O)N[C@@H](CCC(N)=O)C(=O)N[C@@H](CC(=O)O)C(=O)N[C@@H](CO)C(=O)N[C@@H](CC(=O)O)C(=O)N2 [RGD-EETI#3] (H-GCVTGRGDSPASSCKQDSDCLAGCVCGPNGFCG-OH; disulfide 2-24, 14-26, 20-32; N-terminus and C-terminus assumed) | binds better than the 10th domain of fibronectin | significantly weaker imaging signals | significantly weaker imaging signals |  |  |  |  |  |  |  |  |  |  |
| ECESGPCCRNCKFLKEGTICKRARGDDMDDYCNGKTCDCPRNPHKGPAT (disulfide 2-11, 7-32, 8-37, 20-39 (inferred)) [Echistatin, echistatin] |  |  |  | 2.6 ± 0.2 | 4.9 ± 1 | binds strongly; also recorded: bound strongly | binds strongly; also recorded: bound strongly | binds strongly; also recorded: bound strongly | binds strongly; also recorded: bound strongly | 5.8 | blocked adhesion; also recorded: able to block | 3.2 ± 2.7 | 0.3 |

— patent US9265845B2, “Imaging methods using engineered integrin binding peptides” (The Board of Trustees of the Leland Stanford Junior …, priority 2006, dated 2016)
